Reference: US9580431B2, “Inhibitors of human immunodeficiency virus replication” (priority 2013, dated 2017)

Test system: recombinant NL-Rluc virus
Test: microbe, parasite or virus in culture
Type: cell-based, HIV
Details: Human immunodeficiency virus 1, MT2, 120 h

| Structure (SMILES) | EC50 [nM] |
| --- | --- |
| Cc1nc2cc(-n3cc(Cc4ccccc4)cn3)nn2c(N2CCC(C)(C)CC2)c1[C@H](OC(C)(C)C)C(=O)O [Example 33, (S)-2-(2-(4-Benzyl-1H-pyrazol-1-yl)-7-(4,4-dimethylpiperidin-1-yl)-5-methylpyrazolo[1,5-a]pyrimidin-6-yl)-2-(tert-butoxy)acetic acid] | 11 |

Same assay, conditions: Human immunodeficiency virus 1, MT2, 120 h, NL-RLuc virus infecting MT-2 cells, 5 days of incubation, luciferase readout; at least 2 experiments; serum condition not given; read-out: EC50

| Structure (SMILES) | EC50 [nM] |
| --- | --- |
| C=CCOC1(C)CCN(c2c([C@H](OC(C)(C)C)C(=O)O)c(C)nc3cc(-c4cnn(Cc5ccccc5)c4)nn23)CC1 [Example 40, (S)-2-(7-(4-(Allyloxy)-4-methylpiperidin-1-yl)-2-(1-benzyl-1H-pyrazol-4-yl)-5-methylpyrazolo[1,5-a]pyrimidin-6-yl)-2-(tert-butoxy)acetic acid] | 11 |
| CCC1(C)CCN(c2c([C@H](OC(C)(C)C)C(=O)O)c(C)nc3cc(-c4ncc(Cc5ccc(F)cc5)s4)nn23)CC1 [Example 17, (S)-2-(tert-Butoxy)-2-(7-(4-ethyl-4-methylpiperidin-1-yl)-2-(5-(4-fluorobenzyl)thiazol-2-yl)-5-methylpyrazolo[1,5-a]pyrimidin-6-yl)acetic acid] | 13 |
| Cc1nc2cc(-n3cc(Cc4ccccc4)c(Cl)n3)nn2c(N2CCC(C)(C)CC2)c1[C@H](OC(C)(C)C)C(=O)O [Example 38, (S)-2-(2-(4-Benzyl-3-chloro-1H-pyrazol-1-yl)-7-(4,4-dimethylpiperidin-1-yl)-5-methylpyrazolo[1,5-a]pyrimidin-6-yl)-2-(tert-butoxy)acetic acid] | 23 |
| Cc1nc2cc(-c3ncc(C(C)c4ccc(F)cc4)s3)nn2c(N2CCC(C)(C)CC2)c1[C@H](OC(C)(C)C)C(=O)O (stereo partly drawn) [Example 14, (2S)-2-(tert-Butoxy)-2-(7-(4,4-dimethylpiperidin-1-yl)-2-(5-(1-(4-fluorophenyl)ethyl)thiazol-2-yl)-5-methylpyrazolo[1,5-a]pyrimidin-6-yl)acetic acid] | 27 |
| Cc1nc2cc(-c3ncc(Cc4ccc(F)cc4)s3)nn2c(N2CCC(C)(CO)CC2)c1[C@H](OC(C)(C)C)C(=O)O [Example 21, (S)-2-(tert-Butoxy)-2-(2-(5-(4-fluorobenzyl)thiazol-2-yl)-7-(4-(hydroxymethyl)-4-methylpiperidin-1-yl)-5-methylpyrazolo[1,5-a]pyrimidin-6-yl)acetic acid] | 75 |
| Cc1nc2cc(-c3ccc(Cc4ccc(F)cc4)s3)nn2c(N2CCC(C)(C)CC2)c1[C@H](OC(C)(C)C)C(=O)O [Example 25, (S)-2-(tert-Butoxy)-2-(7-(4,4-dimethylpiperidin-1-yl)-2-(5-(4-fluorobenzyl)thiophen-2-yl)-5-methylpyrazolo[1,5-a]pyrimidin-6-yl)acetic acid] | 23 |
| Cc1nc2cc(-c3ncc(Cc4ccc(F)cc4)s3)nn2c(-c2cc(F)c3c(c2C)CCCO3)c1[C@H](OC(C)(C)C)C(=O)O [Example 5, (2S)-2-(tert-Butoxy)-2-(7-(8-fluoro-5-methylchroman-6-yl)-2-(5-(4-fluorobenzyl)thiazol-2-yl)-5-methylpyrazolo[1,5-a]pyrimidin-6-yl)acetic acid] | 3 |
| Cc1nc2cc(-c3ncc(Cc4ccc(F)cc4)s3)nn2c(N2CCC(C)(O)CC2)c1[C@H](OC(C)(C)C)C(=O)O [Example 18, (S)-2-(tert-Butoxy)-2-(2-(5-(4-fluorobenzyl)thiazol-2-yl)-7-(4-hydroxy-4-methylpiperidin-1-yl)-5-methylpyrazolo[1,5-a]pyrimidin-6-yl)acetic acid] | 143 |
| Cc1nc2cc(-c3ncc(Cc4ccc(F)cc4)o3)nn2c(C2=CCC(C)(C)CC2)c1[C@H](OC(C)(C)C)C(=O)O [Example 12, (S)-2-(tert-Butoxy)-2-(7-(4,4-dimethylcyclohex-1-en-1-yl)-2-(5-(4-fluorobenzyl)oxazol-2-yl)-5-methylpyrazolo[1,5-a]pyrimidin-6-yl)acetic acid] | 13 |
| Cc1nc2cc(-n3cnc(Cc4ccccc4)c3)nn2c(N2CCC(C)(C)CC2)c1[C@H](OC(C)(C)C)C(=O)O [Example 34, (S)-2-(2-(4-Benzyl-1H-imidazol-1-yl)-7-(4,4-dimethylpiperidin-1-yl)-5-methylpyrazolo[1,5-a]pyrimidin-6-yl)-2-(tert-butoxy)acetic acid] | 26 |
| Cc1nc2cc(-c3ncc(Cc4ccc(F)cc4)s3)nn2c(N2CCC(C)(C)CC2)c1[C@H](OC(C)(C)C)C(=O)O [Example 13, (S)-2-(tert-Butoxy)-2-(7-(4,4-dimethylpiperidin-1-yl)-2-(5-(4-fluorobenzyl)thiazol-2-yl)-5-methylpyrazolo[1,5-a]pyrimidin-6-yl)acetic acid] | 14 |
| Cc1nc2cc(-c3ncc(Cc4ccc(F)cc4)s3)nn2c(C2CCC(C)(C)CC2)c1[C@H](OC(C)(C)C)C(=O)O [Example 11, (S)-2-(tert-Butoxy)-2-(7-(4,4-dimethylcyclohexyl)-2-(5-(4-fluorobenzyl)thiazol-2-yl)-5-methylpyrazolo[1,5-a]pyrimidin-6-yl)acetic acid] | 82 |
| Cc1nc2cc(-c3ncc(-c4ccc(F)cc4)s3)nn2c(-c2cc(F)c3c(c2C)CCCO3)c1[C@H](OC(C)(C)C)C(=O)O [Example 8, (2S)-2-(tert-Butoxy)-2-(7-(8-fluoro-5-methylchroman-6-yl)-2-(5-(4-fluorophenyl)thiazol-2-yl)-5-methylpyrazolo[1,5-a]pyrimidin-6-yl)acetic acid] | 11 |

Same assay, conditions: NL-RLuc virus infecting MT-2 cells, 5 days of incubation, luciferase readout; at least 2 experiments; serum condition not given; read-out: EC50

| Structure (SMILES) | EC50 [nM] |
| --- | --- |
| Cc1nc2cc(N3CCC(Oc4ccccc4)C3=O)nn2c(N2CCC(C)(C)CC2)c1[C@H](OC(C)(C)C)C(=O)O (stereo partly drawn) [Example 31, (2S)-2-(tert-Butoxy)-2-(7-(4,4-dimethylpiperidin-1 yl)-5-methyl-2-(2-oxo-3-phenoxypyrrolidin-1-yl)pyrazolo[1,5-a]pyrimidin-6-yl)acetic acid] | 813 |
